Laboratory results published in ChEMBL document CHEMBL4004803, “Syntheses and antibacterial activity of soluble 9-bromo substituted indolizinoquinoline-5,12-dione derivatives” (Eur J Med Chem, 2017).
≈ marks a conversion by molar mass, not a printed value.

Tests used:
Format in all cases: functional
[1] = tested on: Staphylococcus aureus; test: Antibacterial activity against methicillin-resistant Staphylococcus aureus 614019 clinical isolate after 20 to 24 hrs by two-fold microdilution method
[2] = tested on: Staphylococcus aureus; test: Antibacterial activity against methicillin-resistant Staphylococcus aureus 20106-2 clinical isolate after 20 to 24 hrs by two-fold microdilution method
[3] = tested on: Staphylococcus aureus; test: Antibacterial activity against methicillin-resistant Staphylococcus aureus 20534 clinical isolate after 20 to 24 hrs by two-fold microdilution method
[4] = tested on: Staphylococcus aureus; test: Antibacterial activity against methicillin-resistant Staphylococcus aureus 221022 clinical isolate after 20 to 24 hrs by two-fold microdilution method
[5] = tested on: Staphylococcus aureus; test: Antibacterial activity against methicillin-resistant Staphylococcus aureus 111625 clinical isolate after 20 to 24 hrs by two-fold microdilution method
[6] = tested on: Staphylococcus aureus; test: Antibacterial activity against methicillin-resistant Staphylococcus aureus 30116-1 clinical isolate after 20 to 24 hrs by two-fold microdilution method
[7] = tested on: Staphylococcus aureus; test: Antibacterial activity against methicillin-resistant Staphylococcus aureus 10281-2 clinical isolate after 20 to 24 hrs by two-fold microdilution method
[8] = tested on: Staphylococcus aureus; test: Antibacterial activity against methicillin-resistant Staphylococcus aureus 202045 clinical isolate after 20 to 24 hrs by two-fold microdilution method
[9] = tested on: Escherichia coli; test: Antibacterial activity against Escherichia coli ATCC 25922 after 20 to 24 hrs by two-fold microdilution method
[10] = tested on: Staphylococcus aureus; test: Antibacterial activity against methicillin-resistant Staphylococcus aureus 112047 clinical isolate after 20 to 24 hrs by two-fold microdilution method
[11] = tested on: Staphylococcus aureus; test: Antibacterial activity against methicillin-resistant Staphylococcus aureus 1107027 clinical isolate after 20 to 24 hrs by two-fold microdilution method
[12] = tested on: Staphylococcus aureus; test: Antibacterial activity against methicillin-resistant Staphylococcus aureus 131215 clinical isolate after 20 to 24 hrs by two-fold microdilution method
[13] = tested on: Staphylococcus aureus; test: Antibacterial activity against methicillin-resistant Staphylococcus aureus 912014 clinical isolate after 20 to 24 hrs by two-fold microdilution method
[14] = tested on: Staphylococcus aureus; test: Antibacterial activity against methicillin-resistant Staphylococcus aureus 110834 clinical isolate after 20 to 24 hrs by two-fold microdilution method
[15] = tested on: Staphylococcus aureus; test: Antibacterial activity against methicillin-resistant Staphylococcus aureus 111423 clinical isolate after 20 to 24 hrs by two-fold microdilution method
[16] = tested on: Staphylococcus aureus; test: Antibacterial activity against methicillin-resistant Staphylococcus aureus 531220 clinical isolate after 20 to 24 hrs by two-fold microdilution method
[17] = tested on: Staphylococcus aureus; test: Antibacterial activity against methicillin-resistant Staphylococcus aureus 120827 clinical isolate after 20 to 24 hrs by two-fold microdilution method
[18] = tested on: Staphylococcus aureus; test: Antibacterial activity against methicillin-resistant Staphylococcus aureus 519030 clinical isolate after 20 to 24 hrs by two-fold microdilution method
[19] = tested on: Staphylococcus aureus; test: Antibacterial activity against methicillin-resistant Staphylococcus aureus clinical isolate after 20 to 24 hrs by two-fold microdilution method
[20] = tested on: Staphylococcus aureus; test: Antibacterial activity against methicillin-resistant Staphylococcus aureus 625032 clinical isolate after 20 to 24 hrs by two-fold microdilution method
[21] = tested on: Staphylococcus aureus; test: Antibacterial activity against […] Staphylococcus aureus ATCC 25923 after 20 to 24 hrs by two-fold microdilution method
[22] = tested on: Staphylococcus aureus; test: Antibacterial activity against methicillin-resistant Staphylococcus aureus 414244 clinical isolate after 20 to 24 hrs by two-fold microdilution method
[23] = tested on: Staphylococcus aureus; test: Antibacterial activity against methicillin-resistant Staphylococcus aureus 1026211 clinical isolate after 20 to 24 hrs by two-fold microdilution method
[24] = tested on: Staphylococcus aureus; test: Antibacterial activity against methicillin-resistant Staphylococcus aureus 1025022 clinical isolate after 20 to 24 hrs by two-fold microdilution method
[25] = tested on: Staphylococcus aureus; test: Antibacterial activity against methicillin-resistant Staphylococcus aureus 530231 clinical isolate after 20 to 24 hrs by two-fold microdilution method
[26] = tested on: Enterococcus faecalis; test: Antibacterial activity against Enterococcus faecalis ATCC 29212 after 20 to 24 hrs by two-fold microdilution method
[27] = tested on: Staphylococcus aureus; test: Antibacterial activity against methicillin-resistant Staphylococcus aureus 1212221 clinical isolate after 20 to 24 hrs by two-fold microdilution method
[28] = tested on: Staphylococcus aureus; test: Antibacterial activity against methicillin-resistant Staphylococcus aureus 212014 clinical isolate after 20 to 24 hrs by two-fold microdilution method
[29] = tested on: Staphylococcus aureus; test: Antibacterial activity against methicillin-resistant Staphylococcus aureus 112430 clinical isolate after 20 to 24 hrs by two-fold microdilution method
[30] = tested on: Staphylococcus aureus; test: Antibacterial activity against methicillin-resistant Staphylococcus aureus 11819 clinical isolate after 20 to 24 hrs by two-fold microdilution method
[31] = tested on: Staphylococcus aureus; test: Antibacterial activity against methicillin-resistant Staphylococcus aureus 908046 clinical isolate after 20 to 24 hrs by two-fold microdilution method
[32] = tested on: Staphylococcus aureus; test: Antibacterial activity against methicillin-resistant Staphylococcus aureus 1019240 clinical isolate after 20 to 24 hrs by two-fold microdilution method
[33] = tested on: Staphylococcus aureus; test: Antibacterial activity against methicillin-resistant Staphylococcus aureus 724244 clinical isolate after 20 to 24 hrs by two-fold microdilution method
[34] = tested on: Staphylococcus haemolyticus; test: Antibacterial activity against Staphylococcus haemolyticus CICC 10373 after 20 to 24 hrs by two-fold microdilution method
[35] = tested on: Staphylococcus aureus; test: Antibacterial activity against methicillin-resistant Staphylococcus aureus 219236 clinical isolate after 20 to 24 hrs by two-fold microdilution method
[36] = tested on: Streptococcus pneumoniae; test: Antibacterial activity against Streptococcus pneumoniae ATCC 6305 after 20 to 24 hrs by two-fold microdilution method
[37] = tested on: Staphylococcus aureus; test: Antibacterial activity against methicillin-resistant Staphylococcus aureus 118038 clinical isolate after 20 to 24 hrs by two-fold microdilution method
[38] = tested on: Staphylococcus aureus; test: Antibacterial activity against methicillin-resistant Staphylococcus aureus 1012039 clinical isolate after 20 to 24 hrs by two-fold microdilution method
[39] = tested on: Staphylococcus aureus; test: Antibacterial activity against methicillin-resistant Staphylococcus aureus 224001 clinical isolate after 20 to 24 hrs by two-fold microdilution method
[40] = tested on: Staphylococcus aureus; test: Antibacterial activity against methicillin-resistant Staphylococcus aureus 123152 clinical isolate after 20 to 24 hrs by two-fold microdilution method
[41] = tested on: Staphylococcus aureus; test: Antibacterial activity against methicillin-resistant Staphylococcus aureus 523005 clinical isolate after 20 to 24 hrs by two-fold microdilution method
[42] = tested on: Staphylococcus aureus; test: Antibacterial activity against methicillin-resistant Staphylococcus aureus 221014 clinical isolate after 20 to 24 hrs by two-fold microdilution method
[43] = tested on: Staphylococcus aureus; test: Antibacterial activity against methicillin-resistant Staphylococcus aureus 10844 clinical isolate after 20 to 24 hrs by two-fold microdilution method
[44] = tested on: Staphylococcus aureus; test: Antibacterial activity against methicillin-resistant Staphylococcus aureus 921026 clinical isolate after 20 to 24 hrs by two-fold microdilution method
[45] = tested on: Staphylococcus aureus; test: Antibacterial activity against methicillin-resistant Staphylococcus aureus 304243 clinical isolate after 20 to 24 hrs by two-fold microdilution method
[46] = tested on: Staphylococcus aureus; test: Antibacterial activity against methicillin-resistant Staphylococcus aureus ATCC 43300 after 20 to 24 hrs by two-fold microdilution method
[47] = tested on: Staphylococcus aureus; test: Antibacterial activity against methicillin-resistant Staphylococcus aureus 531026 clinical isolate after 20 to 24 hrs by two-fold microdilution method

For `O=C1c2cccnc2C(=O)c2c1c(C(=O)OCCCCCCN1CCOCC1)c1ccc(Br)cn21`, the MIC [1] was ≤ 7.8 ng/mL, the MIC [2] was ≤ 7.8 ng/mL and the MIC [3] was ≤ 7.8 ng/mL. The MIC [4] was ≤ 7.8 ng/mL, the MIC [5] was ≤ 7.8 ng/mL and the MIC [6] was ≤ 7.8 ng/mL. For the same compound, the MIC [7] was ≤ 7.8 ng/mL, the MIC [8] was ≤ 7.8 ng/mL and the MIC [9] was 8000 ng/mL (≈ 14.8 µM). The MIC [10] was ≤ 7.8 ng/mL, the MIC [11] was ≤ 7.8 ng/mL and the MIC [12] was 7.8 ng/mL (≈ 0.0144 µM). For the same compound, the MIC [13] was ≤ 7.8 ng/mL, the MIC [14] was ≤ 7.8 ng/mL and the MIC [15] was 16000 ng/mL (≈ 29.6 µM). For the same compound, the MIC [16] was ≤ 7.8 ng/mL, the MIC [17] was ≤ 7.8 ng/mL and the MIC [18] was ≤ 7.8 ng/mL. The MIC50 [19] was ≤ 7.8 ng/mL, the MIC90 [19] was ≤ 7.8 ng/mL and the MIC [20] was ≤ 7.8 ng/mL. For the same compound, the MIC [21] was ≤ 7.8 ng/mL, the MIC [22] was ≤ 7.8 ng/mL and the MIC [23] was ≤ 7.8 ng/mL. The MIC [24] was ≤ 7.8 ng/mL, the MIC [25] was ≤ 7.8 ng/mL and the MIC [26] was 63 ng/mL (≈ 0.117 µM). The MIC [27] was ≤ 7.8 ng/mL, the MIC [28] was ≤ 7.8 ng/mL and the MIC [29] was ≤ 7.8 ng/mL. The MIC [30] was ≤ 7.8 ng/mL, the MIC [31] was ≤ 7.8 ng/mL and the MIC [32] was ≤ 7.8 ng/mL. For the same compound, the MIC [33] was ≤ 7.8 ng/mL, the MIC [34] was 31 ng/mL (≈ 0.0574 µM) and the MIC [35] was ≤ 7.8 ng/mL. For the same compound, the MIC [36] was 500 ng/mL (≈ 0.925 µM), the MIC [37] was ≤ 7.8 ng/mL and the MIC [38] was ≤ 7.8 ng/mL. For the same compound, the MIC [39] was ≤ 7.8 ng/mL, the MIC [40] was ≤ 7.8 ng/mL and the MIC [41] was ≤ 7.8 ng/mL. For the same compound, the MIC [42] was ≤ 7.8 ng/mL, the MIC [43] was ≤ 7.8 ng/mL and the MIC [44] was ≤ 7.8 ng/mL. For the same compound, the MIC [45] was 31 ng/mL (≈ 0.0574 µM), the MIC [46] was ≤ 7.8 ng/mL and the MIC [47] was ≤ 7.8 ng/mL.
